Data as given in patent publication US20190256827A1, “EPIGENOME EDITING SYSTEMS AND METHODS” (STC.UNM, priority 2017, published 2019).

How the values were obtained:
[1] = system: HBA mRNA in HEK293T cells; test: qPCR of HBA mRNA levels; type: cell-based, human; conditions: HBA sgRNAs; ABA vs DMSO
Procedure: (§1) To determine if the new method can be used to modify H3K27Ac at other gene loci, sgRNAs were designed that target the promoter region of other genes with low expression levels in HEK293T cells, including GRM2, HBA and MYOD1 (Table 1).
Human embryonic kidney cell HEK293T (American Type Culture Collection, Manassas, Va.) was cultured in Dulbecco's modified Eagle's medium (DMEM) (Gibco) with 10% FBS (Atlanta Biologicals), 1× GlutaMax (Gibco, Thermo Fisher Scientific, Inc., Waltham, Mass.), and 1× penicillin/streptomycin (Pen/Strep; Gibco, Thermo Fisher Scientific, Inc., Waltham, Mass.). Cells (100,000/ml) were plated in 24-well or 10-cm cell culture plate the day before transfection. […]
Total RNA was extracted using the EZNA Total RNA Kit I (Omega Bio-tek, Inc., Norcross, Ga.). qPCR reactions were performed on cDNA prepared from 1,000 ng of total cellular RNA using the High-Capacity cDNA Reverse Transcription Kit (Applied Biosystems Co., Thermo Fisher Scientific, Inc., Foster City, Calif.). […] Data were analyzed using the SDS software, version 2.4 (Applied Biosystems Co., Thermo Fisher Scientific, Inc., Foster City, Calif.), by the ΔΔCt method: the Ct values of target gene were normalized to Ct values of GAPDH, the folds of target gene expression changes were normalized to experimental controls. Analyzed data are reported as the mean±s.e.m. for biological replicates. […]

[2] = system: GRM2 locus in HEK293T cells; test: ChIP-qPCR of FLAG-ABI-P300 and H3K27Ac at the GRM2 locus; type: cell-based, human
Procedure: as §1
Human embryonic kidney cell HEK293T (American Type Culture Collection, Manassas, Va.) was cultured in Dulbecco's modified Eagle's medium (DMEM) (Gibco) with 10% FBS (Atlanta Biologicals), 1× GlutaMax (Gibco, Thermo Fisher Scientific, Inc., Waltham, Mass.), and 1× penicillin/streptomycin (Pen/Strep; Gibco, Thermo Fisher Scientific, Inc., Waltham, Mass.). Cells (100,000/ml) were plated in 24-well or 10-cm cell culture plate the day before transfection. For each well of 24-well plate transfection, 500 ng of dCas9-PYL-HA, 420 ng of FLAG-ABI-P300, and a total amount of 200-ng mix of gRNAs, with a 50-ng per each gRNA, were mixed with 50×(v/w) Opti-MEM (Gibco, Thermo Fisher Scientific, Inc., Waltham, Mass.), then incubate with the same volume of 3 μg PEI-Opti-MEM solution for 20 minutes at room temperature. Then, 100 μL of PEI-combined plasmids were added to every single well of 24-well plate and cultured for 24 hours before experiments were performed. For a 10 cm plate, 1 mL of PEI-combined plasmids were needed. After six hours transfection, cells were washed and incubated for another 1-72 hours before experiments were performed.
ChIP protocol was optimized from the method in Molecular Cloning, Fourth edition (Cold Spring Harbor Laboratory Press, 2012). In brief, cells cultured in a 10-cm plate were fixed with 1 mL of cross-linking buffer (0.1 M NaCl, 1 mM EDTA, 0.5 mM EGTA, 50 mM HEPES and 11% formaldehyde), and shaken in room temperature for 15 minutes. Then 1.1 mL of 1.25 M glycine was added to the solution to stop crosslinking. After washing three times in ice cold PBS, cells were scraped and suspended in 10 mL of lysis buffer (50 mM HEPES, 140 mM NaCl, 1 mM EDTA, 10% Glycerol, 0.5% NP40, 0.25% Triton X-100), and rocked at 4° C. for 10 minutes. […]

[3] = GRM2 sgRNAs, ABA treatment for 48 hours

CC1=CC(=O)CC(C)(C)[C@@]1(O)/C=C/C(C)=C\C(=O)O [ABA, abscisic acid]
level of HBA mRNA [1]: increases correspondingly
induction and reversibility of H3K27Ac enrichment at the GRM2 locus ([2]; ABA 4-24 hours, then washing and 24 hours without ABA): rapidly induced upon ABA addition and reversed after ABA removal
enrichment of FLAG-ABI-P300 at the GRM2 locus [2, 3]: causes the enrichment
enrichment of H3K27Ac at the GRM2 locus [2, 3]: causes the enrichment
